# Earlier results as cited in patent publication US9491955B2, “Balanced myristate- and laurate-containing edible oil” (Brandeis University, priority 2008, dated 2016).
# Test system: rats
# Conditions: trimyristin component of a blend with peanut oil
smiles,measurement,value
CCCCCCCCCCCCCC(=O)OCC(COC(=O)CCCCCCCCCCCCC)OC(=O)CCCCCCCCCCCCC [trimyristin],Decrease of cholesterol-raising capacity by interesterification with GNO,34%
